# Experimental data published in patent US20050074879A1, “Antisense oligonucleotide modulation of STAT3 expression” (priority 2000, published 2005).
# Oligonucleotides are written 5' to 3', each unit as a sugar letter and its base; * is a phosphorothioate linkage, no mark a phosphodiester; rarer units and linkages stand in square brackets, end groups in braces. Plain capitals give the bases only. e = 2'-O-(2-methoxyethyl) (MOE); [5mC] = 5-methylcytosine; d = 2'-deoxy (DNA)
# System: Human STAT3 mRNA
# Assay: Inhibition of human STAT3 mRNA levels in A549 cells, 75 nM, real-time PCR (Table 13)
# Type: cell-based
# Conditions: 75 nM oligonucleotide with LIPOFECTIN, real-time PCR PPS 199, percent inhibition relative to untreated control cells, average of 2 experiments
# Protocol: Oligonucleotide activity is assayed by quantitation of STAT3 mRNA levels by real-time PCR (RT-PCR) using the ABI PRISMS 7700 Sequence Detection System (PE-Applied Biosystems, Foster City, Calif.) according to manufacturer's instructions. This is a closed-tube, non-gel-based, fluorescence detection system which allows high-throughput quantitation of polymerase chain reaction (PCR) products in real-time. As opposed to standard PCR, in which amplification products are quantitated after the PCR is completed, products in RT-PCR are quantitated as they accumulate. This is accomplished by including in the PCR reaction an oligonucleotide probe that anneals specifically between the forward and reverse PCR primers, and contains two fluorescent dyes. A reporter dye (e.g., JOE or FAM, PE-Applied Biosystems, Foster City, Calif.) is attached to the 5′ end of the probe and a quencher dye (e.g., TAMRA, PE-Applied Biosystems, Foster City, Calif.) is attached to the 3′ end of the probe. When the probe and dyes are intact, reporter dye emission is quenched by the proximity of the 3′ quencher dye. During amplification, annealing of the probe to the target sequence creates a substrate that can be cleaved by the 5′-exonuclease activity of Taq polymerase. […] With each cycle, additional reporter dye molecules are cleaved from their respective probes, and the fluorescence intensity is monitored at regular (six-second) intervals by laser optics built into the ABI PRISM™ 7700 Sequence Detection System. In each assay, a series of parallel reactions containing serial dilutions of mRNA from untreated control samples generates a standard curve that is used to quantitate the percent inhibition after antisense oligonucleotide treatment of test samples.
# RT-PCR reagents are obtained from PE-Applied Biosystems, Foster City, Calif. RT-PCR reactions are carried out by adding 25 l PCR cocktail (1× TAQMAN7 buffer A, 5.5 mM MgCl2, 300 µM each of DATP, dCTP and dGTP, 600 µM of dUTP, 100 nM each of forward primer, reverse primer, and probe, 20 U RNAse inhibitor, 1.25 units AMPLITAQ GOLD7, and 12.5 U MuLV reverse transcriptase) to 96 well plates containing 25 l poly(A) mRNA solution. The RT reaction is carried out by incubation for 30 minutes at 48° C. following a 10 minute incubation at 95° C. to activate the AMPLITAQ GOLD7, 40 cycles of a two-step PCR protocol are carried out: 95° C. for 15 seconds (denaturation) followed by 60° C. for 1.5 minutes (annealing/extension).
# The compounds were analyzed for their effect on STAT3 mRNA levels in A549 cells. The human lung carcinoma cell line A549 was obtained from the American Type Culture Collection (ATCC) (Manassas, Va.). A549 cells were routinely cultured in DMEM basal media (Invitrogen Corporation, Carlsbad, Calif.) supplemented with 10% fetal calf serum (Invitrogen Corporation, Carlsbad, Calif.), 100 units/mL penicillin, and 100 ug/mL streptomycin (Invitrogen Corporation, Carlsbad, Calif.). Cells were routinely passaged by trypsinization and dilution when they reached 90% confluence.
# When cells reached 65-75% confluency, they were treated with oligonucleotide. For cells grown in 96-well plates, wells were washed once with […] OPTI-MEM-1 reduced-serum medium (Invitrogen Corporation, Carlsbad, Calif.) and then treated with 130 µL of OPTI-MEM-1 containing […] LIPOFECTIN (Invitrogen Corporation, Carlsbad, Calif.) and 75 nM of the compounds in Table 13. Cells were treated and data were obtained in duplicate. Untreated cells served as controls. After 4-7 hours of treatment at 37° C., the medium was replaced with fresh medium. Cells were harvested 16-24 hours after oligonucleotide treatment. STAT3 mRNA levels in A549 cells were quantitated by real-time PCR as described by other methods herein.
# Probes and primers to human STAT3 were designed to hybridize to a human STAT3 sequence, using published sequence information (incorporated herein as SEQ ID NO: 1). For STAT 3 the PCR primers were: • forward primer: […]
row,Substance,% Inhib (inhibition of human STAT 3 mRNA levels) [%]
1,337245 (antisense eA*eG*e[5mC]*e[5mC]*eT*d[5mC]*dT*dG*d[5mC]*dA*d[5mC]*d[5mC]*d[5mC]*dT*d[5mC]*eA*eT*eG*eT*eT) [compound 337245],77
2,337246 (antisense e[5mC]*eT*e[5mC]*e[5mC]*eT*dA*dA*dA*dT*dT*dA*dA*dG*dA*dA*e[5mC]*eT*eT*e[5mC]*eT) [compound 337246],37
3,337248 (antisense eT*eA*eT*eT*eG*dA*dA*dA*dA*dT*dT*dA*dT*d[5mC]*dT*eA*eA*eT*eT*e[5mC]) [compound 337248],0
4,337249 (antisense eT*eT*eG*eG*eG*d[5mC]*d[5mC]*dA*dT*d[5mC]*d[5mC]*dT*dG*d[5mC]*dT*eA*eA*eA*eA*eT) [compound 337249],48
5,337250 (antisense eA*eT*eT*e[5mC]*eA*d[5mC]*dT*dT*dG*d[5mC]*d[5mC]*dT*d[5mC]*d[5mC]*dT*eT*eG*eA*e[5mC]*eT) [compound 337250],51
6,337251 (antisense eA*eT*eG*e[5mC]*e[5mC]*d[5mC]*dT*dT*dA*d[5mC]*dT*d[5mC]*dT*d[5mC]*d[5mC]*eG*e[5mC]*eA*eT*e[5mC]) [compound 337251],74
7,337252 (antisense e[5mC]*eT*eG*eA*eA*d[5mC]*dT*dT*dA*d[5mC]*d[5mC]*d[5mC]*dT*d[5mC]*dT*eG*eA*eG*eA*eG) [compound 337252],60
8,337253 (antisense eA*eA*eA*eT*eG*d[5mC]*dG*dG*dA*d[5mC]*d[5mC]*d[5mC]*dA*dA*dG*eA*eG*eT*eT*eT) [compound 337253],49
9,337254 (antisense e[5mC]*eT*eT*eG*eT*dT*d[5mC]*d[5mC]*d[5mC]*dT*d[5mC]*dG*dG*d[5mC]*dT*eG*e[5mC]*eG*eA*e[5mC]) [compound 337254],57
10,337255 (antisense eG*e[5mC]*e[5mC]*eT*eG*dT*d[5mC]*d[5mC]*dA*dG*dG*dA*dT*d[5mC]*d[5mC]*eG*eG*eT*eT*eG) [compound 337255],75
11,337256 (antisense eG*eA*eA*eG*eG*dG*d[5mC]*d[5mC]*dT*d[5mC]*dT*d[5mC]*d[5mC]*dG*dA*eG*e[5mC]*e[5mC]*eG*eA) [compound 337256],67
12,337257 (antisense eG*eG*e[5mC]*eG*eG*d[5mC]*dG*dA*dG*dG*d[5mC]*dT*d[5mC]*d[5mC]*d[5mC]*eT*e[5mC]*eA*eG*eG) [compound 337257],80
13,337258 (antisense eT*e[5mC]*e[5mC]*eG*eG*d[5mC]*dA*dG*dA*dG*dG*d[5mC]*d[5mC]*dG*dA*eG*eA*eG*eG*e[5mC]) [compound 337258],56
14,337259 (antisense e[5mC]*e[5mC]*eA*eT*e[5mC]*d[5mC]*dT*dG*d[5mC]*dT*dA*dA*dA*dA*dT*e[5mC]*eA*eG*eG*eG) [compound 337259],58
15,337260 (antisense e[5mC]*e[5mC]*eA*eT*eT*dG*dG*dG*d[5mC]*d[5mC]*dA*dT*d[5mC]*d[5mC]*dT*eG*e[5mC]*eT*eA*eA) [compound 337260],62
16,337261 (antisense eT*eG*eT*e[5mC]*eA*dA*dG*d[5mC]*dT*dG*d[5mC]*dT*dG*dT*dA*eG*e[5mC]*eT*eG*eA) [compound 337261],79
17,337262 (antisense eA*eA*e[5mC]*eT*eG*d[5mC]*d[5mC]*dG*d[5mC]*dA*dG*d[5mC]*dT*d[5mC]*d[5mC]*eA*eT*eT*eG*eG) [compound 337262],74

row,Substance,% Inhib (inhibition of human STAT 3 mRNA levels) [%]
1,337263 (antisense eT*e[5mC]*eT*eT*eG*dA*d[5mC]*dT*d[5mC]*dT*d[5mC]*dA*dA*dT*d[5mC]*e[5mC]*eA*eA*eG*eG) [compound 337263],79
2,337264 (antisense e[5mC]*eG*e[5mC]*eA*eT*dA*dT*dG*d[5mC]*d[5mC]*d[5mC]*dA*dA*dT*d[5mC]*eT*eT*eG*eA*e[5mC]) [compound 337264],81
3,337265 (antisense e[5mC]*eG*eA*e[5mC]*eT*d[5mC]*dT*dT*dG*d[5mC]*dA*dG*dG*dA*dA*eG*e[5mC]*eG*eG*e[5mC]) [compound 337265],92
4,337266 (antisense eT*e[5mC]*eG*eT*eA*dG*dA*dT*dT*dG*dT*dG*d[5mC]*dT*dG*eA*eT*eA*eG*eA) [compound 337266],61
5,337267 (antisense eA*eG*eA*eA*eA*d[5mC]*dT*dG*d[5mC]*dT*dT*dG*dA*dT*dT*e[5mC]*eT*eT*e[5mC]*eG) [compound 337267],62
6,337268 (antisense eG*eA*eT*eA*e[5mC]*d[5mC]*dT*dG*d[5mC]*dT*d[5mC]*dT*dG*dA*dA*eG*eA*eA*eA*e[5mC]) [compound 337268],75
7,337269 (antisense eT*eT*e[5mC]*eT*e[5mC]*dA*dA*dG*dA*dT*dA*d[5mC]*d[5mC]*dT*dG*e[5mC]*eT*e[5mC]*eT*eG) [compound 337269],74
8,337271 (antisense eG*eT*eG*eA*eT*dT*d[5mC]*dT*dT*d[5mC]*d[5mC]*d[5mC]*dA*d[5mC]*dA*eG*eG*e[5mC]*eA*e[5mC]) [compound 337271],85
9,337272 (antisense eA*eT*e[5mC]*eT*eG*d[5mC]*dT*dG*d[5mC]*dT*dT*d[5mC]*dT*d[5mC]*d[5mC]*eG*eT*e[5mC]*eA*e[5mC]) [compound 337272],74
10,337273 (antisense e[5mC]*e[5mC]*eA*eG*e[5mC]*dA*dT*d[5mC]*dT*dG*d[5mC]*dT*dG*d[5mC]*dT*eT*e[5mC]*eT*e[5mC]*e[5mC]) [compound 337273],73
11,337274 (antisense eT*eG*eA*eA*eG*dG*dT*dG*d[5mC]*dT*dG*d[5mC]*dT*d[5mC]*d[5mC]*eA*eG*e[5mC]*eA*eT) [compound 337274],74
12,337275 (antisense eT*eT*e[5mC]*eT*eG*dT*dT*d[5mC]*dT*dA*dG*dA*dT*d[5mC]*d[5mC]*eT*eG*e[5mC]*eA*e[5mC]) [compound 337275],82
13,337277 (antisense eA*eA*eG*eT*e[5mC]*dA*dT*d[5mC]*d[5mC]*dT*dG*dG*dA*dG*dA*eT*eT*e[5mC]*eT*e[5mC]) [compound 337277],79
14,337278 (antisense eA*eA*eT*e[5mC]*eA*dA*dA*dG*dT*d[5mC]*dA*dT*d[5mC]*d[5mC]*dT*eG*eG*eA*eG*eA) [compound 337278],69
15,337279 (antisense eG*eT*eT*eG*eA*dA*dA*dT*d[5mC]*dA*dA*dA*dG*dT*d[5mC]*eA*eT*e[5mC]*e[5mC]*eT) [compound 337279],78
16,337280 (antisense eT*eT*eA*eT*eA*dG*dT*dT*dG*dA*dA*dA*dT*d[5mC]*dA*eA*eA*eG*eT*e[5mC]) [compound 337280],45
